The subject of one assay is TNF. Kind of assay: TNF production by LPS-stimulated primary human macrophages (ELISA). In kind it is cell-based. The settings on record: LPS 100 ng/ml, 4 hours. Here is the method:
Human macrophage cultures were prepared as follows. Buffy coats were collected from the blood of healthy individual donors to the Long Island Blood Bank Services (Melville, N.Y.). Primary blood mononuclear cells were isolated by density-gradient centrifugation through Ficoll/Hypaque (Pharmacia, N.J.), suspended (8×10^6 cells/ml) in RPMI 1640 medium supplemented with 10% heat inactivated human serum (Gemini Bio-Products, Inc., Calabasas, Calif.), and seeded in flasks (PRIMARIA; Beckton and Dickinson Labware, Franklin Lakes, N.J.). After incubation for 2 hours at 37° C., adherent cells were washed extensively, treated briefly with 10 mM EDTA, detached, resuspended (10^6 cells/ml) in RPMI medium (10% human serum), supplemented with human macrophage colony stimulating factor (MCSF; Sigma Chemical Co., St. Louis, Mo.; 2 ng/ml), and seeded onto 24-well tissue culture plates (PRIMARIA; Falcon) (10^6 cells/well). Cells were allowed to differentiate for 7 days in the presence of MCSF. On day 7 the cells were washed 3 times with 1× Dulbecco's phosphate buffered saline (PBS, GibcoBRL, Life Technologies, Rockville, Md.), fresh medium devoid of MCSF was added, and experiments performed as indicated. […]
On the technique in general: An ELISA detects its analyte on a solid surface through an enzyme-linked reagent.

A further assay relates to female BALB/c mice. Kind of assay: Localized Shwartzman reaction model, ear immunostaining. The assay is classed as in vivo. The settings on record: i.p.; ears 5 hours after LPS challenge; compared to vehicle-treated animals. As for the experimental part:
The localized Shwartzman reaction was performed as previously described (C. Sunderkotter, S. Seeliger, F. Schonlau, J. Roth, R. Hallmann, T. A. Luger, C. Sorg, and G. Kolde. 2001. Different pathways leading to cutaneous leukocytoclastic vasculitits in mice. Exp Dermatol 10:391-404.). Briefly, female BALB/c mice (22-26 g, Taconic) were injected with saline or Compound VIf (i.p., at the indicated doses), and then injected s.c. into the pinnae of the ear with 20 Φg LPS (preparatory dose). One day later, mice (4 per group) were injected either with vehicle (saline) or […] (i.p., at the indicated doses) 15 min prior to challenge with LPS (150 Φg, i.p.) To generate a localized vasculitic reaction. Five hours later, mice were sacrificed by CO2 asphyxiation, and the ears were excised and cut in half longitudinally. Ears were flash frozen in liquid nitrogen and stored at −80 EC. Each experiment was repeated twice. […]
After immunostaining, slides were counterstained with H&E, dehydrated, and mounted with permount. For enumeration of positive staining, three fields per section (three sections per sample) were assessed at 200× magnification and scored as the average number (+SD) of VCAM-1 or E-selectin positive capillaries/vessels. […]

Assay [1] has as its system female Swiss Webster mice. Put plainly: Carrageenan air pouch model, pouch fluid cytokines by ELISA. In kind it is in vivo. The note with it: 12 mg/kg i.p.
The subject of assay [2] is α-bungarotoxin sensitive receptor on the RAW 264.7 cells. The assay is classed as cell-based, murine.

“And” between values parts separate entries of the source, which are not always exact repeats. Equal entries are not always repeated.

From patent US8759376B2, “Isoxazole and isothiazole compounds useful in the treatment of inflammation” (The Feinstein Institute for Medical Research, priority 2003, dated 2014) come the findings set out here.

As for `c1ccc(C2CC(c3cccnc3)=NO2)nc1` (centres unmarked) [(VI d)], in the assay with TNF, the TNF release result is recorded as “inhibited TNF release in a dose dependent manner” and the “efficacy on TNF release compared with control (nicotine)” value was “comparable to or better than that of the control”.
In the case of `c1cncc(C2=NOC(c3ccncc3)C2)c1` (centres unmarked) [Compound (VI f)], in the assay with female BALB/c mice, the “E-selectin protein expression by the endothelium” value is recorded as “reduced” and the “VCAM-1 protein expression by the endothelium” value is listed as “reduced”. The “reduction of pouch fluid levels of MCP-1” value in assay [1] is 20% and 30%. Besides, in assay [1] (compared to vehicle-treated controls), the “reduction of pouch TNF levels” value is 40%. Further, the “pouch TNF level, % of control” value in assay [1] (control 100±7%) is recorded as 60±11%.
For α-bungarotoxin, the “effect on the inhibition of LPS-mediated TNFα release by compound (VI f)” value in assay [2] is “partially abrogated the inhibitory effect”.
